Assay results reported in patent US6417186B1, “Substituted-phenyl ketone derivatives as IP antagonists” (Syntex (U.S.A.) LLC, priority 2000, dated 2002).

Row | melting point [°C] | Compound
1 | 196 to 197.6 | O=C(CCc1ccc(NC2=NCCN2)cc1)c1ccc(N2CCOCC2)cc1 [Example 3, 3-[4-(4,5-Dihydro-1H-imidazol-2-ylamino)phenyl]-1-(4-morpholin-4-ylphenyl)-propan-1-one]
2 | 150 to 151.2 | CCOC(=O)N1CCN(c2ccc(C(=O)CCc3ccc(NC4=NCCN4)cc3)cc2)CC1 [Example 5, 3-[4-(4,5-Dihydro-1H-imidazol-2-ylamino)phenyl]-1-[4-(4-ethoxycarbonyl-piperazin-1-yl)phenyl]propan-1-one]
